According to patent US7211572B2 (Japan Tobacco Inc., priority 2003, dated 2007):

Each compound was assayed against T1, HIV integrase (Human immunodeficiency virus type 1 group M subtype B, UniProt P12497, F1332H) (assay: Determination of enzyme (HIV integrase) inhibitory activity). Settings: recombinant HIV integrase (F185H), strand transfer ELISA, absorbance at 450 nm.
T1 construct: HIV integrase full length gene; made in house; host or cells: Escherichia coli BL21(DE3), plasmid pET21a-INH
Format: biochemical
From the text: The following explains evaluation methods of the HIV integrase inhibitory activity of the compound of the present invention.
(i) Construction of Recombinant Integrase Gene Expression System
The 185th phenylalanine of HIV integrase full length gene (J. Virol., 67, 425–437 (1993)) was substituted by histidine and inserted into the restriction enzyme NdeI and XhoI sites of plasmid pET21a(+) (Novagen), whereby an integrase expression vector pET21a-INH was constructed.
(ii) Production and Purification of Integrase Protein
Escherichia coli recombinant BL21(DE3) transformed with plasmid pET21a-INH obtained in (i) was shake cultured at 37° C. in a liquid medium containing ampicillin. When the culture reached the logarithmic growth phase, isopropyl-β-D-thiogalactopyranoside was added to promote expression of integrase gene. The culture was continued for 3 hr to promote accumulation of the integrase protein. The recombinant E. coli was collected in pellets by centrifugal separation and preserved at −80° C.
The E. coli was suspended in Lysis buffer (20 mM HEPES (pH 7.5), 5 mM DTT, 10 mM CHAPS, 10% glycerol) containing 1M sodium chloride and subjected to repeat pressurization and depressurization for rupture, and centrifugal separation at 4° C., 40,000×g, 60 min to recover a water-soluble fraction (supernatant). This was diluted 10-fold with Lysis buffer free of sodium chloride, mixed with SP-Sepharose (Pharmacia Corporation) and stirred at 4° C. for 30 min to allow adsorption of integrase protein to the resin. The resin was washed with Lysis buffer containing 100 mM sodium chloride and the integrase protein was eluted with Lysis buffer containing 1M sodium chloride.
The eluted integrase protein solution was applied to a Superdex 75 (Pharmacia Corporation) column for gel filtration. The protein was eluted with Lysis buffer containing 1M sodium chloride.
The obtained fractions of the integrase protein were collected and preserved at −80° C.
(iii) Preparation of DNA Solution
The following DNA synthesized by Greiner was dissolved in TE buffer (10 mM Tris-hydrochloric acid (pH 8.0), 1 mM EDTA) and mixed with donor DNA, target DNA, and each complementary strand (+ and − strands) to 1 μM. The mixture was heated at 95° C. for 5 min, 80° C. for 10 min, 70° C. for 10 min, 60° C. for 10 min, 50° C. for 10 min and 40° C. for 10 min and preserved at 25° C. to give a double stranded DNA, which was used for the test.
Donor DNA (− strand having biotin attached to the 5′ terminal)
(iv) Determination of Enzyme (HIV Integrase) Inhibitory Activity
The donor DNA was diluted with TE buffer to 10 nM, of which 50 μl was added to each well of streptavidin-coated microtiter plate (Roche) and allowed to adsorb at 37° C. for 60 min. The DNA was washed with phosphate buffer (Dulbecco PBS, Sanko Junyaku Co., Ltd.) containing 0.1% Tween 20 and phosphate buffer. Then, a reaction mixture (70 μl) having the following composition, a test substance (10 μl) diluted with the reaction mixture and 100 μg/ml integrase protein (10 μl) were added to each well and reacted at 37° C. for 60 min.
Composition of the reaction mixture: 30 mM MOPS (3-morpholinopropanesulfonic acid), 5 mM magnesium chloride, 3 mM DTT (dithiothreitol), 0.1 mg/ml BSA (bovine serum albumin), 5% glycerol, 10% DMSO (dimethyl sulfoxide), 0.01% Tween 20.
Then, 50 nM target DNA (10 μl) was added, reacted at 37° C. for 10 min and washed with phosphate buffer containing 0.1% Tween 20 to stop the reaction.
Then, 100 mU/ml peroxidase labeled anti-digoxigenin antibody solution (Roche, 100 μl) was added, and the mixture was reacted at 30° C. for 60 min, followed by washing with phosphate buffer containing 0.1% Tween 20.
A peroxidase color solution (Bio Rad, 100 μl) was added and allowed to react at room temperature for 4 min. The color reaction was stopped by adding 1N sulfuric acid (100 μl). The absorbance at 450 nm was measured. […]
`CC(C)c1cc(=O)c(O)c2n1CCN(Cc1ccc(Cl)c(Cl)c1)C2=O` [Example 46, 2-(3,4-dichlorobenzyl)-9-hydroxy-6-isopropyl-3,4-dihydro-2H-pyrido[1,2-a]pyrazine-1,8-dione] gave an IC50 of 10 to 100 nM.
Work on `CC(C)C(=O)c1cc(=O)c(O)c2n1CCN(Cc1ccc(Cl)c(Cl)c1)C2=O` [Example 47, 2-(3,4-dichlorobenzyl)-9-hydroxy-6-isobutyryl-3,4-dihydro-2H-pyrido[1,2-a]pyrazine-1,8-dione] yielded an IC50 of less than 10 nM.
In the case of `O=Cc1cc(=O)c(O)c2n1CCN(Cc1ccc(Cl)c(Cl)c1)C2=O` [Example 48, 2-(3,4-dichlorobenzyl)-9-hydroxy-1,8-dioxo-1,3,4,8-tetrahydro-2H-pyrido[1,2-a]pyrazine-6-carbaldehyde], the IC50 is reported as 10 to 100 nM.
For `O=C1c2c(O)c(=O)cc(-c3ccccc3)n2CCN1Cc1ccc(Cl)c(Cl)c1` [Example 49, 2-(3,4-dichlorobenzyl)-9-hydroxy-6-phenyl-3,4-dihydro-2H-pyrido[1,2-a]pyrazine-1,8-dione], the IC50 was 10 to 100 nM.
Compound `O=C1c2c(O)c(=O)ccn2CCN1CCCc1ccccc1` [Example 50, 9-hydroxy-2-(3-phenylpropyl)-3,4-dihydro-2H-pyrido[1,2-a]pyrazine-1,8-dione] has an IC50 of 10 to 100 nM.
Compound `O=C1c2c(O)c(=O)ccn2CCN1Cc1cccc(Cl)c1F` [Example 51, 2-(3-chloro-2-fluorobenzyl)-9-hydroxy-3,4-dihydro-2H-pyrido[1,2-a]pyrazine-1,8-dione] has an IC50 of 10 to 100 nM.
`CC(C)C(O)c1cc(=O)c(O)c2n1CCN(Cc1ccc(Cl)c(Cl)c1)C2=O` (stereo not drawn) [Example 53, 2-(3,4-dichlorobenzyl)-9-hydroxy-6-(1-hydroxy-2-methylpropyl)-3,4-dihydro-2H-pyrido[1,2-a]pyrazine-1,8-dione] showed an IC50 of 10 to 100 nM.
`CC(C)Cc1cc(=O)c(O)c2n1CCN(Cc1ccc(Cl)c(Cl)c1)C2=O` [Example 54, 2-(3,4-dichlorobenzyl)-9-hydroxy-6-isobutyl-3,4-dihydro-2H-pyrido[1,2-a]pyrazine-1,8-dione] gave an IC50 of 10 to 100 nM.
Work on `NC(=O)c1cc(=O)c(O)c2n1CCN(Cc1ccc(Cl)c(Cl)c1)C2=O` [Example 55, 2-(3,4-dichlorobenzyl)-9-hydroxy-1,8-dioxo-1,3,4,8-tetrahydro-2H-pyrido[1,2-a]pyrazine-6-carboxamide] yielded an IC50 of 10 to 100 nM.
`CNC(=O)c1cc(=O)c(O)c2n1CCN(Cc1ccc(Cl)c(Cl)c1)C2=O` [Example 56, N-methyl-2-(3,4-dichlorobenzyl)-9-hydroxy-1,8-dioxo-1,3,4,8-tetrahydro-2H-pyrido[1,2-a]pyrazine-6-carboxamide] was tested, and the IC50 was 10 to 100 nM.
In the case of `O=C1c2c(O)c(=O)ccn2CCN1Cc1ccc(Cl)c(F)c1` [Example 57, 2-(4-chloro-3-fluorobenzyl)-9-hydroxy-3,4-dihydro-2H-pyrido[1,2-a]pyrazine-1,8-dione], the IC50 is reported as 10 to 100 nM.
For `O=C(c1ccccc1)c1cc(=O)c(O)c2n1CCN(Cc1ccc(Cl)c(Cl)c1)C2=O` [Example 58, 6-benzoyl-2-(3,4-dichlorobenzyl)-9-hydroxy-3,4-dihydro-2H-pyrido[1,2-a]pyrazine-1,8-dione], the IC50 was less than 10 nM.
Compound `CCC(=O)c1cc(=O)c(O)c2n1CCN(Cc1ccc(Cl)c(Cl)c1)C2=O` [Example 59, 2-(3,4-dichlorobenzyl)-9-hydroxy-6-propionyl-3,4-dihydro-2H-pyrido[1,2-a]pyrazine-1,8-dione] has an IC50 of less than 10 nM.
Work on `Cc1cc(=O)c(O)c2n1CCN(Cc1ccc(Cl)c(Cl)c1)C2=O` [Example 60, 2-(3,4-dichlorobenzyl)-9-hydroxy-6-methyl-3,4-dihydro-2H-pyrido[1,2-a]pyrazine-1,8-dione] yielded an IC50 of 10 to 100 nM.
`CCN(CC)C(=O)c1cc(=O)c(O)c2n1CCN(Cc1ccc(Cl)c(Cl)c1)C2=O` [Example 61, N,N-diethyl-2-(3,4-dichlorobenzyl)-9-hydroxy-1,8-dioxo-1,3,4,8-tetrahydro-2H-pyrido[1,2-a]pyrazine-6-carboxamide] showed an IC50 of 10 to 100 nM.
